Data taken from US20240300932A1, “N-PHENYLIMINE DERIVATIVE AND PREPARATION METHOD AND USE THEREOF” (Guizhou University, priority 2023, published 2024).

Legend:
[1] = test system: Amaranthus retroflexus; assay: Post-emergence herbicidal activity test (stem and leaf spray, pot culture); assay type: in vivo; details: 3 weeks after spraying
Procedure, shortened: (§1)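 Read-out: fresh weight control rate 3 weeks post-spray, graded 5 (≥85%) down to 0 (<5%). Foliar spray at 2–3-leaf stage; rates 10, 5, 2.5 g/mu; acetone + Tween 80 formulation with methyl oleate synergist; greenhouse 20–30 °C, natural light.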

[2] = test system: Abutilon theophrasti; assay: as above; assay type: in vivo; details: 3 weeks after spraying
Procedure, shortened: as §1

[3] = test system: Setaria viridis; assay: as above; assay type: in vivo; details: 3 weeks after spraying
Procedure, shortened: as §1

[4] = test system: Echinochloa crusgalli; assay: as above; assay type: in vivo; details: 3 weeks after spraying
Procedure, shortened: as §1

[5] = test system: Portulaca oleracea; assay: as above; assay type: in vivo; details: 3 weeks after spraying
Procedure, shortened: as §1

[6] = test system: Trifoliumre pensL.; assay: as above; assay type: in vivo; details: 3 weeks after spraying
Procedure, shortened: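 Pot-grown weeds in loam (pH 7), greenhouse at 20–30 °C, sprayed once post-emergence at the 2–3-leaf stage. Compound in acetone with Tween 80 plus methyl oleate oil (1.5 L/ha), applied at 10, 5 and 2.5 g/mu by spray tower. Effect scored 3 weeks after spraying, averaged over three repeats.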

melting point [°C] | SMILES | Post-emergence herbicidal activity, A. retroflexus (grade) ([1]; dosage 2.5 g/mu) | Post-emergence herbicidal activity, A. retroflexus (grade) ([1]; dosage 5 g/mu) | Post-emergence herbicidal activity, A. retroflexus (grade) ([1]; dosage 10 g/mu) | Post-emergence herbicidal activity, A. theophrasti (grade) ([2]; dosage 2.5 g/mu) | Post-emergence herbicidal activity, A. theophrasti (grade) ([2]; dosage 5 g/mu) | Post-emergence herbicidal activity, A. theophrasti (grade) ([2]; dosage 10 g/mu) | Post-emergence herbicidal activity, S. viridis (grade) ([3]; dosage 2.5 g/mu) | Post-emergence herbicidal activity, S. viridis (grade) ([3]; dosage 5 g/mu) | Post-emergence herbicidal activity, S. viridis (grade) ([3]; dosage 10 g/mu) | Post-emergence herbicidal activity, E. crusgalli (grade) ([4]; dosage 2.5 g/mu) | Post-emergence herbicidal activity, E. crusgalli (grade) ([4]; dosage 5 g/mu) | Post-emergence herbicidal activity, E. crusgalli (grade) ([4]; dosage 10 g/mu) | Post-emergence herbicidal activity, P. oleracea (grade) ([5]; dosage 2.5 g/mu) | Post-emergence herbicidal activity, P. oleracea (grade) ([5]; dosage 5 g/mu) | Post-emergence herbicidal activity, P. oleracea (grade) ([5]; dosage 10 g/mu) | Post-emergence herbicidal activity, Trifoliumre pensL. (grade) ([6]; dosage 2.5 g/mu) | Post-emergence herbicidal activity, Trifoliumre pensL. (grade) ([6]; dosage 5 g/mu) | Post-emergence herbicidal activity, Trifoliumre pensL. (grade) ([6]; dosage 10 g/mu)
135 to 137 | O=C(COc1cc(N2C(=O)C3=C(CCCC3)C2=O)c(F)cc1Cl)c1cc(F)cc(F)c1 [Compound C5, 2-(4-chloro-2-fluoro-5-(2-oxo-2-(3,5-difluorophenyl)ethoxy)phenyl)-4,5,6,7-tetrahydro-1H-isoindole-1,3(2H)-dione] | 5 (Grade 5: the growth control rate is greater than or equal to 85%) | 5 (Grade 5: the growth control rate is greater than or equal to 85%) | 5 (Grade 5: the growth control rate is greater than or equal to 85%) | 5 (Grade 5: the growth control rate is greater than or equal to 85%) | 5 (Grade 5: the growth control rate is greater than or equal to 85%) | 5 (Grade 5: the growth control rate is greater than or equal to 85%) | 2 (Grade 2: the growth control rate is greater than or equal to 20% and less than 40%) | 3 (Grade 3: the growth control rate is greater than or equal to 40% and less than 60%) | 4 (Grade 4: the growth control rate is greater than or equal to 60% and less than 85%) | 1 (Grade 1: the growth control rate is greater than or equal to 5% and less than 20%) | 2 (Grade 2: the growth control rate is greater than or equal to 20% and less than 40%) | 3 (Grade 3: the growth control rate is greater than or equal to 40% and less than 60%) | 5 (Grade 5: the growth control rate is greater than or equal to 85%) | 5 (Grade 5: the growth control rate is greater than or equal to 85%) | 5 (Grade 5: the growth control rate is greater than or equal to 85%) | 5 (Grade 5: the growth control rate is greater than or equal to 85%) | 5 (Grade 5: the growth control rate is greater than or equal to 85%) | 5 (Grade 5: the growth control rate is greater than or equal to 85%)
126 to 128 | O=C(COc1cc(N2C(=O)C3=C(CCCC3)C2=O)c(F)cc1Cl)c1ccc(F)cc1 [Compound C8, 2-(4-chloro-2-fluoro-5-(2-oxo-2-(4-fluorophenyl)ethoxy)phenyl)-4,5,6,7-tetrahydro-1H-isoindole-1,3(2H)-dione] | 5 (Grade 5: the growth control rate is greater than or equal to 85%) | 5 (Grade 5: the growth control rate is greater than or equal to 85%) | 5 (Grade 5: the growth control rate is greater than or equal to 85%) | 5 (Grade 5: the growth control rate is greater than or equal to 85%) | 5 (Grade 5: the growth control rate is greater than or equal to 85%) | 5 (Grade 5: the growth control rate is greater than or equal to 85%) | 2 (Grade 2: the growth control rate is greater than or equal to 20% and less than 40%) | 3 (Grade 3: the growth control rate is greater than or equal to 40% and less than 60%) | 4 (Grade 4: the growth control rate is greater than or equal to 60% and less than 85%) | 1 (Grade 1: the growth control rate is greater than or equal to 5% and less than 20%) | 2 (Grade 2: the growth control rate is greater than or equal to 20% and less than 40%) | 3 (Grade 3: the growth control rate is greater than or equal to 40% and less than 60%) | 5 (Grade 5: the growth control rate is greater than or equal to 85%) | 5 (Grade 5: the growth control rate is greater than or equal to 85%) | 5 (Grade 5: the growth control rate is greater than or equal to 85%) | 5 (Grade 5: the growth control rate is greater than or equal to 85%) | 5 (Grade 5: the growth control rate is greater than or equal to 85%) | 5 (Grade 5: the growth control rate is greater than or equal to 85%)
148 to 150 | O=C(COc1cc(N2C(=O)C3=C(CCCC3)C2=O)c(F)cc1Cl)c1ccc([N+](=O)[O-])cc1 [Compound C9, 2-(4-chloro-2-fluoro-5-(2-oxo-2-(4-nitrophenyl)ethoxy)phenyl)-4,5,6,7-tetrahydro-1H-isoindole-1,3(2H)-dione] | 5 (Grade 5: the growth control rate is greater than or equal to 85%) | 5 (Grade 5: the growth control rate is greater than or equal to 85%) | 5 (Grade 5: the growth control rate is greater than or equal to 85%) | 5 (Grade 5: the growth control rate is greater than or equal to 85%) | 5 (Grade 5: the growth control rate is greater than or equal to 85%) | 5 (Grade 5: the growth control rate is greater than or equal to 85%) | 2 (Grade 2: the growth control rate is greater than or equal to 20% and less than 40%) | 3 (Grade 3: the growth control rate is greater than or equal to 40% and less than 60%) | 4 (Grade 4: the growth control rate is greater than or equal to 60% and less than 85%) | 1 (Grade 1: the growth control rate is greater than or equal to 5% and less than 20%) | 2 (Grade 2: the growth control rate is greater than or equal to 20% and less than 40%) | 3 (Grade 3: the growth control rate is greater than or equal to 40% and less than 60%) | 5 (Grade 5: the growth control rate is greater than or equal to 85%) | 5 (Grade 5: the growth control rate is greater than or equal to 85%) | 5 (Grade 5: the growth control rate is greater than or equal to 85%) | 5 (Grade 5: the growth control rate is greater than or equal to 85%) | 5 (Grade 5: the growth control rate is greater than or equal to 85%) | 5 (Grade 5: the growth control rate is greater than or equal to 85%)
119 to 121 | O=C1C2=C(CCCC2)C(=O)N1c1cc(OCc2ccc(F)cc2)c(Cl)cc1F [Compound C10, 2-(4-chloro-2-fluoro-5-((4-fluorobenzyl)oxy)phenyl)-4,5,6,7-tetrahydro-1H-isoindole-1,3(2H)-dione] | 5 (Grade 5: the growth control rate is greater than or equal to 85%) | 5 (Grade 5: the growth control rate is greater than or equal to 85%) | 5 (Grade 5: the growth control rate is greater than or equal to 85%) | 5 (Grade 5: the growth control rate is greater than or equal to 85%) | 5 (Grade 5: the growth control rate is greater than or equal to 85%) | 5 (Grade 5: the growth control rate is greater than or equal to 85%) | 2 (Grade 2: the growth control rate is greater than or equal to 20% and less than 40%) | 3 (Grade 3: the growth control rate is greater than or equal to 40% and less than 60%) | 4 (Grade 4: the growth control rate is greater than or equal to 60% and less than 85%) | 1 (Grade 1: the growth control rate is greater than or equal to 5% and less than 20%) | 2 (Grade 2: the growth control rate is greater than or equal to 20% and less than 40%) | 3 (Grade 3: the growth control rate is greater than or equal to 40% and less than 60%) | 5 (Grade 5: the growth control rate is greater than or equal to 85%) | 5 (Grade 5: the growth control rate is greater than or equal to 85%) | 5 (Grade 5: the growth control rate is greater than or equal to 85%) | 5 (Grade 5: the growth control rate is greater than or equal to 85%) | 5 (Grade 5: the growth control rate is greater than or equal to 85%) | 5 (Grade 5: the growth control rate is greater than or equal to 85%)
